Measured values from article PMC7617869, “Molecular glues that inhibit deubiquitylase activity and inflammatory signaling” (Nature Structural & Molecular Biology, 2025).
“And” between values parts separate entries of the source, which are not always exact repeats. Equal values may be shown once.

Legend:
BRISC BRCC45 C245A = BRISC BRCC45 C245A (Homo sapiens, UniProt P46736+Q15018+Q9NXR7, C245A); assay: BRISC mutant IQF assay: BRCC45 C245A; format: biochemical
Experimental: (§1) IQF assays were performed in DUB reaction buffer containing 50 mM HEPES–NaOH pH 7.0, 100 mM NaCl, 0.1 mg ml^−1 BSA, 1 mM DTT and 0.03% v/v Brij-35. […] The final concentration of BRISC WT, all BRISC mutants, HsBRISCΔLoop, MmBRISC and DrBRISCΔNΔC was 1 nM. Other enzymes were tested at the following concentrations: 5 nM ARISC (FL), 10 nM CfBRISCΔNΔC, 250 nM AMSH* (ref. [43]), 500 nM USP2 and 1 μM trypsin (Sigma, 9002-07-7). For Michaelis–Menten experiments, 1 nM BRISC with 0–1 μM IQF K63-linked diubiquitin substrate was used. Michaelis–Menten analyses and Lineweaver–Burk plots were calculated using GraphPad Prism (version 9.0).
(§2) To assess enzymatic activity, BRISC complexes were diluted to concentrations between 1 nM and 50 nM. […] Then, 20-μl enzyme reactions were carried out in 384-well black flat-bottom low-flange plates (Corning, 35373). DUB activity was measured using IQF K63-linked diubiquitin (LifeSensors, DU6303) at 50 nM. Cleaved diubiquitin was monitored by measuring fluorescence intensity (excitation, 544 nm; emission, 575 nm; dichroic mirror, 560 nm). Fluorescence intensity was measured every minute for 30 min at 30 °C. Fluorescence intensity units were plotted against time to generate a linear reaction progress curve, where the initial velocity (V0) corresponds to the gradient of the curve (typically achieved within 15 min). IC50 values were calculated using the GraphPad Prism (version 9.0) built-in dose–response equation for inhibitor concentration versus response (variable slope).

BRISC BRCC36 R167A = BRISC BRCC36 R167A (Homo sapiens, UniProt P46736+Q15018+Q9NXR7, R167A); assay: BRISC mutant IQF assay: BRCC36 R167A; format: biochemical
Experimental: as §1, §2

HsBRISCΔLoop = HsBRISCΔLoop (Homo sapiens, UniProt P46736+Q15018+Q9NXR7, DEL184-208); assay: Mass photometry of HsBRISCΔLoop dimer formation; conditions: for Dimer fraction: HsBRISCΔLoop
[1] = biological target: T1, panel of 48 purified DUBs (Homo sapiens, UniProt Q86UV5); assay: DUB selectivity profiling (DUBprofiler, ubiquitin–rhodamine(110)–glycine); format: biochemical; conditions: DUB USP48; screening concentration 5 μM; 5 µM
T1 construct: purchased Ubiquigent (DUBprofiler service)
Experimental: (§3) Biochemical selectivity profiling (DUBprofiler) was performed by Ubiquigent with a panel of 48 purified DUBs and ubiquitin–rhodamine(110)–glycine as a fluorescent substrate.

[2] = biological target: T2, panel of 48 purified DUBs (Homo sapiens, UniProt Q9Y4E8); assay: as above; format: biochemical; conditions: DUB USP15; screening concentration 5 μM; 5 µM
T2 construct: purchased Ubiquigent (DUBprofiler service)
Experimental: as §3

[3] = biological target: T3, panel of 48 purified DUBs (Homo sapiens, UniProt P15374); assay: as above; format: biochemical; conditions: DUB UCHL3; screening concentration 5 μM; 5 µM
T3 construct: purchased Ubiquigent (DUBprofiler service)
Experimental: as §3

[4] = biological target: T4, panel of 48 purified DUBs (Homo sapiens, UniProt P35125); assay: as above; format: biochemical; conditions: DUB USP6; screening concentration 5 μM; 5 µM
T4 construct: purchased Ubiquigent (DUBprofiler service)
Experimental: as §3

[5] = biological target: T5, panel of 48 purified DUBs (Homo sapiens, UniProt Q9Y5K5); assay: as above; format: biochemical; conditions: DUB UCHL5; screening concentration 5 μM; 5 µM
T5 construct: purchased Ubiquigent (DUBprofiler service)
Experimental: as §3

[6] = biological target: T6, panel of 48 purified DUBs (Homo sapiens, UniProt P51784); assay: as above; format: biochemical; conditions: DUB USP11; screening concentration 5 μM; 5 µM
T6 construct: purchased Ubiquigent (DUBprofiler service)
Experimental: as §3

[7] = biological target: T7, panel of 48 purified DUBs (Homo sapiens, UniProt Q96DC9); assay: as above; format: biochemical; conditions: DUB OTUB2; screening concentration 5 μM; 5 µM
T7 construct: purchased Ubiquigent (DUBprofiler service)
Experimental: as §3

[8] = biological target: T8, panel of 48 purified DUBs (Homo sapiens, UniProt Q9P275); assay: as above; format: biochemical; conditions: DUB USP36; screening concentration 5 μM; 5 µM
T8 construct: purchased Ubiquigent (DUBprofiler service)
Experimental: as §3

[9] = biological target: T9, panel of 48 purified DUBs (Homo sapiens, UniProt Q15040); assay: as above; format: biochemical; conditions: DUB JOSD1; screening concentration 5 μM
T9 construct: purchased Ubiquigent (DUBprofiler service)
Experimental: as §3

[10] = biological target: T10, panel of 48 purified DUBs (Homo sapiens, UniProt Q6R6M4); assay: as above; format: biochemical; conditions: DUB USP17; screening concentration 5 μM; 5 µM
T10 construct: purchased Ubiquigent (DUBprofiler service)
Experimental: as §3

[11] = biological target: T11, panel of 48 purified DUBs (Homo sapiens, UniProt P09936); assay: as above; format: biochemical; conditions: DUB UCHL1; screening concentration 5 μM; 5 µM
T11 construct: purchased Ubiquigent (DUBprofiler service)
Experimental: as §3

[12] = biological target: T12, panel of 48 purified DUBs (Homo sapiens, UniProt P40818); assay: as above; format: biochemical; conditions: DUB USP8; screening concentration 5 μM; 5 µM
T12 construct: purchased Ubiquigent (DUBprofiler service)
Experimental: as §3

[13] = biological target: T13, panel of 48 purified DUBs (Homo sapiens, UniProt Q9UK80); assay: as above; format: biochemical; conditions: DUB USP21; screening concentration 5 μM
T13 construct: purchased Ubiquigent (DUBprofiler service)
Experimental: as §3

[14] = biological target: T14, panel of 48 purified DUBs (Homo sapiens, UniProt Q9H3M9); assay: as above; format: biochemical; conditions: DUB Ataxin3L; screening concentration 5 μM; 5 µM
T14 construct: purchased Ubiquigent (DUBprofiler service)
Experimental: as §3

[15] = biological target: T15, panel of 48 purified DUBs (Homo sapiens, UniProt O75604); assay: as above; format: biochemical; conditions: DUB USP2; screening concentration 5 μM; 5 µM
T15 construct: purchased Ubiquigent (DUBprofiler service)
Experimental: as §3

[16] = biological target: T16, panel of 48 purified DUBs (Homo sapiens, UniProt Q13107); assay: as above; format: biochemical; conditions: DUB USP4; screening concentration 5 μM
T16 construct: purchased Ubiquigent (DUBprofiler service)
Experimental: as §3

[17] = FX-171-C 0.035 μM, read-out: Normalised V0
[18] = FX-171-C 0.35 μM, read-out: Normalised V0
[19] = FX-171-C 6.25 μM, read-out: Normalised V0
[20] = FX-171-C 12.5 μM, read-out: Normalised V0

T3 sequence (P15374 whole entry): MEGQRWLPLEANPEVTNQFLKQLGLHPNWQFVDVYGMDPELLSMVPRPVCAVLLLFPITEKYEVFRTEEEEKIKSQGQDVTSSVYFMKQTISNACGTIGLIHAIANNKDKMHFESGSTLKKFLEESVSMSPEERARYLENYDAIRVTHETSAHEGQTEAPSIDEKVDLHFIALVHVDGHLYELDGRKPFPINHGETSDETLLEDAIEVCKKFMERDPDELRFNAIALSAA
T8 sequence (Q9P275 whole entry): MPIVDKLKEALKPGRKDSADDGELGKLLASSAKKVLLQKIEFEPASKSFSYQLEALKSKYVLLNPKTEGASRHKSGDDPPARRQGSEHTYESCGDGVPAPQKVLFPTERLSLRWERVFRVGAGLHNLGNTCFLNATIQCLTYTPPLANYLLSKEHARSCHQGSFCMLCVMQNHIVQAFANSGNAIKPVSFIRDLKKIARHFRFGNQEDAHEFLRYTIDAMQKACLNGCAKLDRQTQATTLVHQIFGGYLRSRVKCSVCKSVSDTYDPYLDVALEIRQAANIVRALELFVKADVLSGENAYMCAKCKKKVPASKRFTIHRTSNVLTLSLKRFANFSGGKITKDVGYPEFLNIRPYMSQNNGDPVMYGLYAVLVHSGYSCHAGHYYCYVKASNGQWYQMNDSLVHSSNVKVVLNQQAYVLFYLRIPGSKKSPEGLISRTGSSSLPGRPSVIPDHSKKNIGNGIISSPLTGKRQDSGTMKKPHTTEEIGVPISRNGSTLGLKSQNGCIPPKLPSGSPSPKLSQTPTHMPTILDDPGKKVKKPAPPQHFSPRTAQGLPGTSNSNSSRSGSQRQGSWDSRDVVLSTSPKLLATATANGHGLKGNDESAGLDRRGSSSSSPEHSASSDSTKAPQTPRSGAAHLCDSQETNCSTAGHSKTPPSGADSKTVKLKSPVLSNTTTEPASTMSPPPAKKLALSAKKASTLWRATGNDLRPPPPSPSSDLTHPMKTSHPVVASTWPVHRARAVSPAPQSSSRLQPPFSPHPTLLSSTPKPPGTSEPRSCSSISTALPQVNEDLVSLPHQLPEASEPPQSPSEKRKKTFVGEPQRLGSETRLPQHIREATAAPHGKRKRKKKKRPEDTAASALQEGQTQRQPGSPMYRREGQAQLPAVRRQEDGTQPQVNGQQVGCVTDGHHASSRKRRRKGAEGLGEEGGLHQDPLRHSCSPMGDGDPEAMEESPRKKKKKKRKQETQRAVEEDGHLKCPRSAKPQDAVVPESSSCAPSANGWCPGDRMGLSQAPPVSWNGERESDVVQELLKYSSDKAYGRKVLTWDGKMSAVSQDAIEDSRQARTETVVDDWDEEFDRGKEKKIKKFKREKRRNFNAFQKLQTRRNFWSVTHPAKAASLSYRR
T14 sequence (Q9H3M9 whole entry): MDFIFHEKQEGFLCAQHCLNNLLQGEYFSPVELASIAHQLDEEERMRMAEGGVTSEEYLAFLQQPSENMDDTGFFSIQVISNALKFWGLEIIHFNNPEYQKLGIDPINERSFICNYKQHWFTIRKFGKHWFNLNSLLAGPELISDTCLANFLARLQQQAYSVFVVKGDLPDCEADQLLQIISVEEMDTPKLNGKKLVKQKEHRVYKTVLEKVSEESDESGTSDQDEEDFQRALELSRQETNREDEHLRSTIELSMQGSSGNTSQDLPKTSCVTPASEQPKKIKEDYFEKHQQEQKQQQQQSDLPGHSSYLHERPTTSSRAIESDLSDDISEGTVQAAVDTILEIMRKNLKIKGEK
T5 sequence (Q9Y5K5 whole entry): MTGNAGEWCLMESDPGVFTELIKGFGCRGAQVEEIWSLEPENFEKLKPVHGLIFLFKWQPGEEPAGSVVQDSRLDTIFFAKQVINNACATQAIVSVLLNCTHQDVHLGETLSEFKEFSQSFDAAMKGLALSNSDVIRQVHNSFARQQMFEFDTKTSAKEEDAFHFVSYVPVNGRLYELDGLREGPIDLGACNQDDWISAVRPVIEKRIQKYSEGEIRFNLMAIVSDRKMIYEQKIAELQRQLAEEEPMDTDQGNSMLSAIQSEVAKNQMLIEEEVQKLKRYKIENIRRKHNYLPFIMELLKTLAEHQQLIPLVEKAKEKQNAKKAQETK
T11 sequence (P09936 whole entry): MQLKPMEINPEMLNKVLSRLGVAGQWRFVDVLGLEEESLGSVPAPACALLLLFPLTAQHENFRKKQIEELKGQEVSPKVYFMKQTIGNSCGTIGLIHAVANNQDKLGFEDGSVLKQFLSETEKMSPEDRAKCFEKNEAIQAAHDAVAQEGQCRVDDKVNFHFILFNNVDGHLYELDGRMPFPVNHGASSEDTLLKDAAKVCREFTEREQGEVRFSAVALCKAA
T1 sequence (Q86UV5 whole entry): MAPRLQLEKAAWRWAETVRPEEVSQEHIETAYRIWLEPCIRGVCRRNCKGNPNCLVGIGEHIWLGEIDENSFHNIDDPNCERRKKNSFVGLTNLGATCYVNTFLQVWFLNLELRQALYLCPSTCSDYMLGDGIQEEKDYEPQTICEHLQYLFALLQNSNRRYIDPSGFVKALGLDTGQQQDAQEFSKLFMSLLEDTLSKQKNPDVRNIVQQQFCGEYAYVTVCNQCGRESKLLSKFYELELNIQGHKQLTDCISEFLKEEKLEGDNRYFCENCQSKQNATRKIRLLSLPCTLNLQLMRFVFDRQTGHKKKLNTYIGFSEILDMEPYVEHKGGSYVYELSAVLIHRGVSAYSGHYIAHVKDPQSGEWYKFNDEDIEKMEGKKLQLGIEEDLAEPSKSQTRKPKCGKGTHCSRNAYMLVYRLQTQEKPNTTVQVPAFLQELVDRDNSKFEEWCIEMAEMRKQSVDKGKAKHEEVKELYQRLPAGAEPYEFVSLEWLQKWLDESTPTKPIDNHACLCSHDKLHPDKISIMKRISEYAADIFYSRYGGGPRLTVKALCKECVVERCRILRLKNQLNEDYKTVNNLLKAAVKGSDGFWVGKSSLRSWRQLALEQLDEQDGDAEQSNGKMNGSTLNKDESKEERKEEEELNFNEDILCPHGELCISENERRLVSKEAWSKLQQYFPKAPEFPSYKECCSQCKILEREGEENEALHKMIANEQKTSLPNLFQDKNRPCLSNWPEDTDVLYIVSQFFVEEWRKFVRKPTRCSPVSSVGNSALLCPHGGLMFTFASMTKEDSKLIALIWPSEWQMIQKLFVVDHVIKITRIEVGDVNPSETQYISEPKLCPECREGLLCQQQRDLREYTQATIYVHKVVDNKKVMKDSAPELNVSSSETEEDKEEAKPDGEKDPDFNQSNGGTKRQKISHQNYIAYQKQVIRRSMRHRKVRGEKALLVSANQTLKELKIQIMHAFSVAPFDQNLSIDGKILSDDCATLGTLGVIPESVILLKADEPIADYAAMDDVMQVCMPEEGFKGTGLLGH
T12 sequence (P40818 whole entry): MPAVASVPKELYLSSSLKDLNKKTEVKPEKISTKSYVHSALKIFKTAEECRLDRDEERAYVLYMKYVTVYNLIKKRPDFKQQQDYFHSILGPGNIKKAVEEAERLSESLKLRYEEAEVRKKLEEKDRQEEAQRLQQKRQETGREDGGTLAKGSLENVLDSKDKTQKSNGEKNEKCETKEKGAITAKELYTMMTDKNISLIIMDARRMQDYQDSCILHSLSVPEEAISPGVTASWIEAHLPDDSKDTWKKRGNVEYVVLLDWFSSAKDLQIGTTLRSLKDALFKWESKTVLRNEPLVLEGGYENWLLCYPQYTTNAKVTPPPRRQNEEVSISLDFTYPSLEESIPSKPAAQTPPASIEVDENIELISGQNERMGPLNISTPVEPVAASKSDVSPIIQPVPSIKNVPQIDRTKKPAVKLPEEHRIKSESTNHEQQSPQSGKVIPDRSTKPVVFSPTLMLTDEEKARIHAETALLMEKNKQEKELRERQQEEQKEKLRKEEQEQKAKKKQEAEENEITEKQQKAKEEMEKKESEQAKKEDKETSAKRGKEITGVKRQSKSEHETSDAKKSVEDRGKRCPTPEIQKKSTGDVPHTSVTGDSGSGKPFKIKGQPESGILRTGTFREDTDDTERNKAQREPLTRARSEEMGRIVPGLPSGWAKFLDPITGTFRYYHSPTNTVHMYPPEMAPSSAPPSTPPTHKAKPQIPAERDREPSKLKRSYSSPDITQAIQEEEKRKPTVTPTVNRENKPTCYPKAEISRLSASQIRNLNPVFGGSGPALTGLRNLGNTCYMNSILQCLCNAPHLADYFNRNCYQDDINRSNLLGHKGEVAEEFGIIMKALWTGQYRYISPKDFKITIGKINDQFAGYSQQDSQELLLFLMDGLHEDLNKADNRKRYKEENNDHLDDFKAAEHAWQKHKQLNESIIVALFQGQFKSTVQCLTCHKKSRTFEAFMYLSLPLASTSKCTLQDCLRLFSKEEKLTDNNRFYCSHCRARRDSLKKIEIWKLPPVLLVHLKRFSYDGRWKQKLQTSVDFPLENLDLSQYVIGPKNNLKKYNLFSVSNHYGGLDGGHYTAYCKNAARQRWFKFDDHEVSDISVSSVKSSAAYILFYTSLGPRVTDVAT
T7 sequence (Q96DC9 whole entry): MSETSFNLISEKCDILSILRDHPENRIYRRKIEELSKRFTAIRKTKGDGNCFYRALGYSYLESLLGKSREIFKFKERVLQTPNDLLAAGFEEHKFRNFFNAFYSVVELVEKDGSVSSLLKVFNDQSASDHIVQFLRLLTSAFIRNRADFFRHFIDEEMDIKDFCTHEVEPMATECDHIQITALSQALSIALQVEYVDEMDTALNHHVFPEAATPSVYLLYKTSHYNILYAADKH

## O=C(NC1C2CNCC21)c1nn(C(=O)c2c(Cl)cccc2Cl)cc1NC(=O)c1c(Cl)cccc1Cl (centres unmarked) [FX-171-C]
BRISC BRCC45 C245A
  IC50: 31 µM
  inhibitor sensitivity vs BRISC WT: reduced sensitivity to inhibition
BRISC BRCC45 C245A; FX-171-C 0.0035 μM, read-out: Normalised V0
  remaining activity at 0.0035 µM: 97.7%
BRISC BRCC45 C245A; [17]
  remaining activity at 0.035 µM: 74.6%
BRISC BRCC45 C245A; [18]
  remaining activity at 0.35 µM: 94.7%
BRISC BRCC45 C245A; [19]
  remaining activity at 6.25 µM: 66.4%
BRISC BRCC45 C245A; [20]
  remaining activity at 12.5 µM: 43.3%
BRISC BRCC45 C245A; FX-171-C 25 μM, read-out: Normalised V0
  remaining activity at 25 µM: 46.6%
BRISC BRCC36 R167A
  IC50: 1.4 µM
  inhibitor sensitivity vs BRISC WT: remained inhibitor sensitive
BRISC BRCC36 R167A; [17]
  remaining activity at 0.035 µM: 98.5%
BRISC BRCC36 R167A; [18]
  remaining activity at 0.35 µM: 78.4%
BRISC BRCC36 R167A; FX-171-C 3.1 μM, read-out: Normalised V0
  remaining activity at 3.1 µM: 25.5%
BRISC BRCC36 R167A; [19]
  remaining activity at 6.25 µM: 20.8%
BRISC BRCC36 R167A; [20]
  remaining activity at 12.5 µM: 15%
BRISC BRCC36 R167A; FX-171-C 100 μM, read-out: Normalised V0
  remaining activity at 100 µM: 4.9%
HsBRISCΔLoop; [FX-171-C (μM)] 20
  Dimer fraction: 0
HsBRISCΔLoop; [FX-171-C (μM)] 40
  Dimer fraction: 0
HsBRISCΔLoop; [FX-171-C (μM)] 80
  Dimer fraction: 0
HsBRISCΔLoop; [FX-171-C (μM)] 156
  Dimer fraction: 0
HsBRISCΔLoop; [FX-171-C (μM)] 312.5
  Dimer fraction: 0
HsBRISCΔLoop; [FX-171-C (μM)] 2500
  Dimer fraction: 0.11 and 0.07
HsBRISCΔLoop; [FX-171-C (μM)] 5000
  Dimer fraction: 0.16 and 0.15 and 0.14
HsBRISCΔLoop; [FX-171-C (μM)] 10000
  Dimer fraction: 0.23 and 0.22 and 0.14
HsBRISCΔLoop; mass photometry and negative-stain EM
  dimer formation of human BRISCΔLoop on inhibitor addition: fewer dimers

## O=C(NC1CCNCC1)c1nn(C(=O)c2c(Cl)cccc2Cl)cc1NC(=O)c1c(Cl)cccc1Cl [JMS-175-2]
[1]
  Activity (% control): 99 % control and 103 % control
[2]
  Activity (% control): 111 % control and 115 % control
[3]
  Activity (% control): 95 % control and 96 % control
[4]
  Activity (% control): 92 % control and 95 % control
[5]
  Activity (% control): 90 % control and 98 % control
[6]
  Activity (% control): 102 % control and 100 % control
[7]
  Activity (% control): 97 % control and 96 % control
[8]
  Activity (% control): 108 % control and 117 % control
[9]
  Activity (% control): 67 % control
[10]
  Activity (% control): 89 % control and 83 % control
[11]
  Activity (% control): 104 % control and 112 % control
[12]
  Activity (% control): 88 % control and 84 % control
[13]
  Activity (% control): 93 % control
[14]
  Activity (% control): 98 % control and 95 % control
[15]
  Activity (% control): 86 % control and 84 % control
[16]
  Activity (% control): 101 % control
